Laboratory results as given in ChEMBL document CHEMBL5724806, “Unraveling interindividual differences and functional consequences of gut microbial metabolism of immunosuppressants” (2024).

Key:
Assay type in all cases: ADME
[1] = The drug is tested on the gut metagenome community of T-04 with ENA study accession number: PRJEB31790 for biotransformation under anaerobic condition. The drug concentrations were measured over 7 timepoints collected between 0 and 12 hours of incubation by liquid-chromatography-coupled mass spectrometry (LC–MS); parameters: dose 5 uM, timepoint 0, 0.75, 1.5, 3, 6, 9, 12 hours; conditions: 5 µM
[2] = The drug is tested on the gut metagenome community of A-01 with ENA study accession number: PRJEB31790 for biotransformation under anaerobic condition. The drug concentrations were measured over 7 timepoints collected between 0 and 12 hours of incubation by liquid-chromatography-coupled mass spectrometry (LC–MS); parameters: dose 5 uM, timepoint 0, 0.75, 1.5, 3, 6, 9, 12 hours; conditions: 5 µM
[3] = The drug is tested on Streptococcus anginosus strain: DSM20563 for biotransformation under anaerobic condition. The drug concentrations were measured over 6 timepoints collected between 0 and 12 hours of incubation by liquid-chromatography-coupled mass spectrometry (LC–MS); parameters: dose 5 uM, timepoint 0, 1.5, 3, 6, 9, 12 hours; conditions: 5 µM
[4] = The drug is tested on the gut metagenome community of P-03 with ENA study accession number: PRJEB31790 for biotransformation under microaerobic condition. The drug concentrations were measured over 7 timepoints collected between 0 and 12 hours of incubation by liquid-chromatography-coupled mass spectrometry (LC–MS); parameters: dose 5 uM, timepoint 0, 0.75, 1.5, 3, 6, 9, 12 hours; conditions: 5 µM
[5] = The drug is tested on the gut metagenome community of A-07 with ENA study accession number: PRJEB31790 for biotransformation under microaerobic condition. The drug concentrations were measured over 7 timepoints collected between 0 and 12 hours of incubation by liquid-chromatography-coupled mass spectrometry (LC–MS); parameters: dose 5 uM, timepoint 0, 0.75, 1.5, 3, 6, 9, 12 hours; conditions: 5 µM
[6] = The drug is tested on Collinsella aerofaciens strain: DSM3979 for biotransformation under anaerobic condition. The drug concentrations were measured over 6 timepoints collected between 0 and 12 hours of incubation by liquid-chromatography-coupled mass spectrometry (LC–MS); parameters: dose 5 uM, timepoint 0, 1.5, 3, 6, 9, 12 hours; conditions: 5 µM
[7] = The drug is tested on the gut metagenome community of A-08 with ENA study accession number: PRJEB31790 for biotransformation under microaerobic condition. The drug concentrations were measured over 7 timepoints collected between 0 and 12 hours of incubation by liquid-chromatography-coupled mass spectrometry (LC–MS); parameters: dose 5 uM, timepoint 0, 0.75, 1.5, 3, 6, 9, 12 hours; conditions: 5 µM
[8] = The drug is tested on the gut metagenome community of A-04 with ENA study accession number: PRJEB31790 for biotransformation under anaerobic condition. The drug concentrations were measured over 7 timepoints collected between 0 and 12 hours of incubation by liquid-chromatography-coupled mass spectrometry (LC–MS); parameters: dose 5 uM, timepoint 0, 0.75, 1.5, 3, 6, 9, 12 hours; conditions: 5 µM
[9] = The drug is tested on Bacteroides vulgatus strain: DSM1447 for biotransformation under anaerobic condition. The drug concentrations were measured over 6 timepoints collected between 0 and 12 hours of incubation by liquid-chromatography-coupled mass spectrometry (LC–MS); parameters: dose 5 uM, timepoint 0, 1.5, 3, 6, 9, 12 hours; conditions: phocaeicola vulgatus, 5 µM
[10] = The drug is tested on the gut metagenome community of A-02 with ENA study accession number: PRJEB31790 for biotransformation under microaerobic condition. The drug concentrations were measured over 7 timepoints collected between 0 and 12 hours of incubation by liquid-chromatography-coupled mass spectrometry (LC–MS); parameters: dose 5 uM, timepoint 0, 0.75, 1.5, 3, 6, 9, 12 hours; conditions: 5 µM
[11] = The drug is tested on the gut metagenome community of A-08 with ENA study accession number: PRJEB31790 for biotransformation under anaerobic condition. The drug concentrations were measured over 7 timepoints collected between 0 and 12 hours of incubation by liquid-chromatography-coupled mass spectrometry (LC–MS); parameters: dose 5 uM, timepoint 0, 0.75, 1.5, 3, 6, 9, 12 hours; conditions: 5 µM
[12] = The drug is tested on Bifidobacterium adolescentis strain: DSM20083 for biotransformation under anaerobic condition. The drug concentrations were measured over 6 timepoints collected between 0 and 12 hours of incubation by liquid-chromatography-coupled mass spectrometry (LC–MS); parameters: dose 5 uM, timepoint 0, 1.5, 3, 6, 9, 12 hours; conditions: 5 µM
[13] = The drug is tested on the gut metagenome community of T-05 with ENA study accession number: PRJEB31790 for biotransformation under anaerobic condition. The drug concentrations were measured over 7 timepoints collected between 0 and 12 hours of incubation by liquid-chromatography-coupled mass spectrometry (LC–MS); parameters: dose 5 uM, timepoint 0, 0.75, 1.5, 3, 6, 9, 12 hours; conditions: 5 µM
[14] = The drug is tested on Gemella morbillorum strain: DSM20572 for biotransformation under microaerobic condition. The drug concentrations were measured over 6 timepoints collected between 0 and 12 hours of incubation by liquid-chromatography-coupled mass spectrometry (LC–MS); parameters: dose 5 uM, timepoint 0, 1.5, 3, 6, 9, 12 hours; conditions: 5 µM
[15] = The drug is tested on Lactobacillus reuteri strain: DSM20016 for biotransformation under anaerobic condition. The drug concentrations were measured over 6 timepoints collected between 0 and 12 hours of incubation by liquid-chromatography-coupled mass spectrometry (LC–MS); parameters: dose 5 uM, timepoint 0, 1.5, 3, 6, 9, 12 hours; conditions: limosilactobacillus reuteri, 5 µM
[16] = The drug is tested on the gut metagenome community of A-07 with ENA study accession number: PRJEB31790 for biotransformation under anaerobic condition. The drug concentrations were measured over 7 timepoints collected between 0 and 12 hours of incubation by liquid-chromatography-coupled mass spectrometry (LC–MS); parameters: dose 5 uM, timepoint 0, 0.75, 1.5, 3, 6, 9, 12 hours; conditions: 5 µM
[17] = The drug is tested on Eubacterium rectale strain: DSM17629 for biotransformation under anaerobic condition. The drug concentrations were measured over 6 timepoints collected between 0 and 12 hours of incubation by liquid-chromatography-coupled mass spectrometry (LC–MS); parameters: dose 5 uM, timepoint 0, 1.5, 3, 6, 9, 12 hours; conditions: agathobacter rectalis, 5 µM
[18] = The drug is tested on Streptococcus sanguinis strain: DSM20567 for biotransformation under microaerobic condition. The drug concentrations were measured over 6 timepoints collected between 0 and 12 hours of incubation by liquid-chromatography-coupled mass spectrometry (LC–MS); parameters: dose 5 uM, timepoint 0, 1.5, 3, 6, 9, 12 hours; conditions: 5 µM
[19] = The drug is tested on the gut metagenome community of A-05 with ENA study accession number: PRJEB31790 for biotransformation under microaerobic condition. The drug concentrations were measured over 7 timepoints collected between 0 and 12 hours of incubation by liquid-chromatography-coupled mass spectrometry (LC–MS); parameters: dose 5 uM, timepoint 0, 0.75, 1.5, 3, 6, 9, 12 hours; conditions: 5 µM
[20] = The drug is tested on the gut metagenome community of P-01 with ENA study accession number: PRJEB31790 for biotransformation under microaerobic condition. The drug concentrations were measured over 7 timepoints collected between 0 and 12 hours of incubation by liquid-chromatography-coupled mass spectrometry (LC–MS); parameters: dose 5 uM, timepoint 0, 0.75, 1.5, 3, 6, 9, 12 hours; conditions: 5 µM
[21] = The drug is tested on Lactobacillus paracasei strain: ATCC27092 for biotransformation under microaerobic condition. The drug concentrations were measured over 6 timepoints collected between 0 and 12 hours of incubation by liquid-chromatography-coupled mass spectrometry (LC–MS); parameters: dose 5 uM, timepoint 0, 1.5, 3, 6, 9, 12 hours; conditions: lacticaseibacillus paracasei, 5 µM
[22] = The drug is tested on Actinomyces graevenitzii strain: DSM15540 for biotransformation under microaerobic condition. The drug concentrations were measured over 6 timepoints collected between 0 and 12 hours of incubation by liquid-chromatography-coupled mass spectrometry (LC–MS); parameters: dose 5 uM, timepoint 0, 1.5, 3, 6, 9, 12 hours; conditions: 5 µM
[23] = The drug is tested on Actinomyces naeslundi strain: DSM43013 for biotransformation under anaerobic condition. The drug concentrations were measured over 6 timepoints collected between 0 and 12 hours of incubation by liquid-chromatography-coupled mass spectrometry (LC–MS); parameters: dose 5 uM, timepoint 0, 1.5, 3, 6, 9, 12 hours; conditions: actinomyces naeslundii, 5 µM
[24] = The drug is tested on Enterococcus faecalis strain: ATCC29212 for biotransformation under microaerobic condition. The drug concentrations were measured over 6 timepoints collected between 0 and 12 hours of incubation by liquid-chromatography-coupled mass spectrometry (LC–MS); parameters: dose 5 uM, timepoint 0, 1.5, 3, 6, 9, 12 hours; conditions: 5 µM
[25] = The drug is tested on Alloscardovia omnicolens strain: DSM21503 for biotransformation under microaerobic condition. The drug concentrations were measured over 6 timepoints collected between 0 and 12 hours of incubation by liquid-chromatography-coupled mass spectrometry (LC–MS); parameters: dose 5 uM, timepoint 0, 1.5, 3, 6, 9, 12 hours; conditions: 5 µM

Compound | Bacterial Biotransformation [1] | Bacterial Biotransformation [2] | Bacterial Biotransformation [3] | Bacterial Biotransformation [4] | Bacterial Biotransformation [5] | Bacterial Biotransformation [6] | Bacterial Biotransformation [7] | Bacterial Biotransformation [8] | Bacterial Biotransformation [9] | Bacterial Biotransformation [10] | Bacterial Biotransformation [11] | Bacterial Biotransformation [12] | Bacterial Biotransformation [13] | Bacterial Biotransformation [14] | Bacterial Biotransformation [15] | Bacterial Biotransformation [16] | Bacterial Biotransformation [17] | Bacterial Biotransformation [18] | Bacterial Biotransformation [19] | Bacterial Biotransformation [20] | also measured
CO[C@H]1C[C@@H]2CC[C@@H](C)[C@@](O)(O2)C(=O)C(=O)N2CCCC[C@H]2C(=O)O[C@H]([C@H](C)C[C@@H]2CC[C@@H](OCCO)[C@H](OC)C2)CC(=O)[C@H](C)/C=C(\C)[C@@H](O)[C@@H](OC)C(=O)[C@H](C)C[C@H](C)/C=C/C=C/C=C/1C [EVEROLIMUS] | Compound NOT metabolized | Compound metabolized | Compound NOT metabolized | Compound NOT metabolized | Compound metabolized | Compound metabolized | Compound metabolized | Compound metabolized | Compound NOT metabolized | Compound metabolized | Compound metabolized | Compound NOT metabolized | Compound NOT metabolized | Compound NOT metabolized | Compound NOT metabolized | Compound metabolized | Compound NOT metabolized | Compound NOT metabolized | Compound metabolized | Compound NOT metabolized | Bacterial Biotransformation [21]: Compound NOT metabolized; Bacterial Biotransformation [22]: Compound NOT metabolized; Bacterial Biotransformation [23]: Compound NOT metabolized; Bacterial Biotransformation [24]: Compound NOT metabolized; Bacterial Biotransformation [25]: Compound NOT metabolized
NS(=O)(=O)c1cc(C(=O)O)c(NCc2ccco2)cc1Cl [FUROSEMIDE] | Compound NOT metabolized | Compound NOT metabolized | Compound NOT metabolized | Compound NOT metabolized | Compound NOT metabolized | Compound NOT metabolized | Compound NOT metabolized | Compound NOT metabolized | Compound NOT metabolized | Compound NOT metabolized | Compound NOT metabolized | Compound NOT metabolized | Compound NOT metabolized | Compound NOT metabolized | Compound NOT metabolized | Compound NOT metabolized | Compound NOT metabolized | Compound NOT metabolized | Compound NOT metabolized | Compound NOT metabolized | Bacterial Biotransformation [21]: Compound NOT metabolized; Bacterial Biotransformation [22]: Compound NOT metabolized; Bacterial Biotransformation [23]: Compound NOT metabolized; Bacterial Biotransformation [24]: Compound NOT metabolized; Bacterial Biotransformation [25]: Compound NOT metabolized
C[C@]12CCC(=O)C=C1CC[C@@H]1[C@@H]2[C@@H](O)C[C@@]2(C)[C@H]1CC[C@]2(O)C(=O)CO [HYDROCORTISONE] | Compound NOT metabolized | Compound metabolized | Compound NOT metabolized | Compound metabolized | Compound metabolized | Compound NOT metabolized | Compound metabolized | Compound metabolized | Compound NOT metabolized | Compound metabolized | Compound metabolized | Compound NOT metabolized | Compound metabolized | Compound NOT metabolized | Compound NOT metabolized | Compound metabolized | Compound NOT metabolized | Compound NOT metabolized | Compound metabolized | Compound metabolized | Bacterial Biotransformation [21]: Compound NOT metabolized; Bacterial Biotransformation [22]: Compound NOT metabolized; Bacterial Biotransformation [23]: Compound NOT metabolized; Bacterial Biotransformation [24]: Compound NOT metabolized; Bacterial Biotransformation [25]: Compound NOT metabolized
